Assay results published in patent US5183821A, “Method for treating leukemias using N-(2-dimethylaminoethyl)-3-amino-1,8-naphthalimide for treating leukemias and solid tumors” (priority 1991, dated 1993).
“Also recorded” adds a separate entry of the source.

Key:
Fischer 344 rats = experiment: Five daily dose rat toxicity study; format: in vivo; conditions: for toxicity summary, rats: five daily doses i.v. (X5)
Protocol: Preclinical toxicity studies of BIDA were completed in CD2F1 Mice, Fischer 344 rats and beagle dogs (4). The animals were injected IV with a single bolus or daily for five days.
A preclinical toxicology study of benzisoquinolinedione (NSC-308847) was done at Springborn Institute for Bioresearch, Inc. using CD2 F1 mice, Fischer 344 rats and beagle dogs. Animals were injected intravenously on a single dose (X1) or five daily dose (X5) regimen. Bulk drug was titrated with 0.5N HCl to form a salt solution of benzisoquinolinedione at a pH of 5.0-6.5. Sterile 0.9% saline was used for diluting the dosing solutions and was used for the vehicle control animals.
The following summarizes the major organ toxicities resulting from IV administration of benzisoquinolinedione to rats.

L-1210 Lymphoid leukemia = experiment: Experiment 9: L-1210 i.p., 10^5 cells, saline with Tween-80, male; format: in vivo, CD2F1 (CDF)
Description: Tumor: L-1210 Lymphoid leukemia
Inoculum Site: Intraperitoneal
Vehicle: Saline with Tween-80
Treatment schedule (relative to tumor inoculation day): daily on days 1-9
Day of evaluation (relative to tumor inoculation day): 30
Parameter: Mean survival time (MST) in days
NCI minimal activity criteria: Percent T/C≥125
Percent T/C: Ratio of test (T) evaluation to control (C) evaluation expressed as a percentage

[1] = Blood compatibility testing, canine; conditions: 50 mg/ml, 1:1
B16 Melanocarcinoma = experiment: NCI screen, B16 Melanocarcinoma, intraperitoneal (summary); format: in vivo, Mouse; conditions: for Antitumor activity in words: B16
Description: The activity of the compound has been evaluated by experiments carried out under the auspices of the Division of Cancer Treatment, National Cancer Institute, employing techniques considered to be reliable indicators of chemotherapeutic utility in the treatment of forms of cancer in human patients. The details of the methodology employed in the reported experiments may be determined with reference to established NCI screening methods.
In the experiments conducted by the NCI, evaluation of activity is made on the basis of appropriate parameters, such as median survival time (MST) or change in average tumor diameter (CATD)in ocular micrometer units (OMU).

[2] = 24.0 mg/kg/day, females, day 8-9
[3] = 24.0 mg/kg/day, listed as benzisoquinolinedione

Question: Which results are given for CN(C)CCN1C(=O)c2cccc3cc(N)cc(c23)C1=O [Example 9, 1H-Benz[de]isoquinoline-1,3(2H)-dione, 5-amino-2-[2-(dimethylamino)ethyl]]?
Answer: mild to marked ileal epithelial necrosis, incidence (Fischer 344 rats; 24.0 mg/kg/day, females, day 8): 10/10; mild to marked jejunal epithelial necrosis, incidence (Fischer 344 rats; 24.0 mg/kg/day, females, day 8): 9/10; mild to severe colonic epithelial necrosis, incidence (Fischer 344 rats; 24.0 mg/kg/day, females, day 8): 3/10; moderate to marked ileal epithelial degeneration, incidence (Fischer 344 rats; 24.0 mg/kg/day, females, day 8): 5/10; marked to severe bone marrow atrophy, incidence (Fischer 344 rats; [2]): 10/10; marked to severe thymic atrophy, incidence (Fischer 344 rats; [2]): 9/10; Hepatic findings (Fischer 344 rats; 24.0 mg/kg/day, females, day 9): multifocal liver necrosis in two females; Gastrointestinal findings (Fischer 344 rats; [3]): Diarrhea was observed on days 6 to 10 in males and days 6 to termination (day 8 or 9) in females; also recorded: mild to marked epithelial degeneration and necrosis of the duodenum, jejunum and ileum of both sexes; also recorded: No lesions were seen in long-term males; also recorded: emaciation (days 7-12) and dehydration (days 9-12); Hematologic findings (Fischer 344 rats; [3]): Mild increases in hemoglobin, hematocrit and red blood cells were seen in male rats on day 8; also recorded: moderate to slight decreases in these parameters on days 15 and 22; also recorded: No reticulocytes were observable in either sex on day 8; also recorded: marked decreases being seen on day 8, followed by moderate to marked increases above baselines on days 15 and 22; also recorded: mild thrombocytosis; Reproductive findings (Fischer 344 rats; [3]): All five males showed decreased testicular weights on day 36; also recorded: No reproductive lesions were seen on day 8 in males or females; marked jejunal epithelial degeneration, incidence (Fischer 344 rats; 24.0 mg/kg/day, males, day 8): 4/5; marked to severe bone marrow atrophy, incidence (Fischer 344 rats; 24.0 mg/kg/day, males, day 8): 5/5; marked to severe thymic atrophy, incidence (Fischer 344 rats; 24.0 mg/kg/day, males, day 8): 3/5; mild necrosis of the hair bulb, incidence (Fischer 344 rats; 24.0 mg/kg/day, males, day 8): 2/5; mild to marked duodenal epithelial degeneration, incidence (Fischer 344 rats; 24.0 mg/kg/day, males, day 8): 4/5; mild to marked duodenal epithelial necrosis, incidence (Fischer 344 rats; 24.0 mg/kg/day, males, day 8): 5/5; mild to marked ileal epithelial necrosis, incidence (Fischer 344 rats; 24.0 mg/kg/day, males, day 8): 4/5; mild to marked jejunal epithelial necrosis, incidence (Fischer 344 rats; 24.0 mg/kg/day, males, day 8): 4/5; moderate to marked ileal epithelial degeneration, incidence (Fischer 344 rats; 24.0 mg/kg/day, males, day 8): 4/5; depression of group mean body weights (Fischer 344 rats; 24.0 mg/kg/day, males, day 26 as printed): 31; body weight loss at termination (Fischer 344 rats; 24.0 mg/kg/day, males, day 36): 31; moderate bone marrow atrophy, incidence (Fischer 344 rats; 24.0 mg/kg/day, males, day 36): 1/5; moderate to marked hyperkeratosis, incidence (Fischer 344 rats; 24.0 mg/kg/day, males, day 36): 4/5; moderate to severe thymic atrophy, incidence (Fischer 344 rats; 24.0 mg/kg/day, males, day 36): 2/5; depression of group mean body weights (Fischer 344 rats; 24.0 mg/kg/day, males, days 15 and 22): 26; Tail (integumentary) findings (Fischer 344 rats; 24.0 mg/kg/day, males, listed as benzisoquinolinedione): the tail skin was friable and sloughing in males; also recorded: severe tail necrosis in all five males; Deaths, females (Fischer 344 rats; 2XMELD10, X5): one-half of the females; toxicity summary, rats (Fischer 344 rats; listed as BIDA): reproductive system toxicity was seen at doses of MELD 10 and higher; toxicity summary, rats (Fischer 344 rats; listed as benzisoquinolinedione): toxic on both schedules (X1, X5) to the hematopoietic system and to the male reproductive system; also recorded: gastrointestinal, tail lesions and possibly hepatotoxicity; also recorded: Toxicity to the testes and tails was delayed and had not reversed by day 36; Mean survival time (MST) (L-1210 Lymphoid leukemia; 1.00 mg/kg i.p.): 9.0 days; Percent T/C (L-1210 Lymphoid leukemia; 1.00 mg/kg i.p.): 104%; Mean survival time (MST) (L-1210 Lymphoid leukemia; 2.00 mg/kg i.p.): 8.7 days; Percent T/C (L-1210 Lymphoid leukemia; 2.00 mg/kg i.p.): 101%; Mean survival time (MST) (L-1210 Lymphoid leukemia; 4.00 mg/kg i.p.): 9.3 days; Percent T/C (L-1210 Lymphoid leukemia; 4.00 mg/kg i.p.): 108%; Mean survival time (MST) (L-1210 Lymphoid leukemia; 8.00 mg/kg i.p.): 11.7 days; Percent T/C (L-1210 Lymphoid leukemia; 8.00 mg/kg i.p.): 136%; Mean survival time (MST) (L-1210 Lymphoid leukemia; 16.00 mg/kg i.p.): 17.0 days; Percent T/C (L-1210 Lymphoid leukemia; 16.00 mg/kg i.p.): 197%; Mean survival time (MST) (L-1210 Lymphoid leukemia; 32.00 mg/kg i.p.): 7.7 days; Percent T/C (L-1210 Lymphoid leukemia; 32.00 mg/kg i.p.): 89%; blood compatibility ([1]; canine heparinized plasma): compatibility; blood compatibility ([1]; canine serum): compatibility; increased life spans (B16 Melanocarcinoma; 16 mg/kg i.p. days 1-9, three experiments): 37-55%; Antitumor activity in words (B16 Melanocarcinoma; listed as BIDA): Activity was seen; Antitumor activity in words (B16 Melanocarcinoma; listed as the compound): at least a reproducible minimal activity; also recorded: active; Table II evaluation (B16 Melanocarcinoma; median survival time, 28 tests, full wrapped cell: Reproducible minimal activity): Reproducible minimal
